Data: PMC3857224, “Inhibition of DNA Glycosylases via Small Molecule Purine Analogs” (PLoS ONE, 2013)

Legend:
NEIL1 [1] = molecular target: T1, NEIL1 (Homo sapiens, UniProt Q96FI4); assay: qHTS fluorogenic glycosylase/AP lyase assay, 1536-well, Sp/Gh substrate; assay type: biochemical; details: 5 concentrations
T1 construct: made in house
Protocol: The fluorogenic assay was miniaturized to 4 µL in 1536-well black solid plates by optimization of the enzyme and Sp/Gh substrate concentrations. Briefly, 3 µL of 25 nM NEIL1 were dispensed into each well of a 1536-well plate (except buffer in columns 3 and 4 as a negative control). Compounds (DMSO solutions) and control (DMSO only) (23 nL) were transferred to the plate via Kalypsys pintool. The plate was incubated for 15 min at room temperature, and then 1 µL of the Sp/Gh-containing DNA substrate (75 nM final concentration) was added to start the reaction. The plate was immediately transferred into the ViewLux reader for the kinetic fluorescence read. Initial rate data were normalized against uninhibited and no-enzyme controls and the resulting percent activities as a function of compound concentration were fitted using the Hill equation.
Having established the general principle for a glycosylase screening assay, further assay development was undertaken to enable HTS in which the reaction volumes were reduced by 5-fold to a total of 4 µL. Initially, the library of pharmacologically active compounds (LOPAC^1280) was screened for inhibitors of NEIL1 as a determination of the feasibility of this high-throughput method. […] All compounds were screened at 5 different concentrations that allowed for the initial estimation of inhibitory potency (IC50) values, as well as an evaluation of the shape of the response curves. In addition to the anticipated inhibitors (known DNA intercalators, such as ellipticine (IC50 = 2 µM)) and other small molecules that have been previously established to be promiscuous inhibitors (such as aurintricarboxylic acid (IC50<1 µM)), one interesting hit from this screen was CGP-74514A (NCGC ID is NCGC00015229) (Figure 5A). CGP-74514A is a known small molecule inhibitor of Cdk1 in which the structure of this molecule is based on a purine ring backbone.

NEIL1 [2] = molecular target: T1, NEIL1; assay: NEIL1 excision of FapyAde and FapyGua from γ-irradiated calf thymus DNA by GC-MS/MS; assay type: biochemical; details: 10 µL of 2 mM inhibitor in DMSO, 1 h 37°C
Protocol: The enzymatic activity of NEIL1 was measured using gas chromatography/isotope-dilution tandem mass spectrometry (GC-MS/MS) and calf thymus DNA samples γ-irradiated at 20 Gy as described, [30]. Aliquots of FapyAde-^13C,^15N2 and FapyGua-^13C,^15N2 were added as internal standards to 50 µg of DNA samples. After drying in a SpeedVac, DNA samples were dissolved in 50 µL of an incubation buffer consisting of 50 mM phosphate buffer (pH 7.4), 100 mM KCl, 1 mM EDTA, and 0.1 mM dithiothreitol, and then incubated with 2 µg NEIL1 for 1 h at 37°C without any inhibitor, DMSO alone, or with 10 µL of an inhibitor solution in DMSO (2 mM). After incubation, 150 µL of cold ethanol was added. The samples were kept at −20°C for 1 h and then centrifuged with 14,000 g for 30 min at 4°C. The supernatant fractions were separated and ethanol removed in a SpeedVac under vacuum. The samples were then frozen in liquid nitrogen and lyophilized overnight. To fully remove DMSO that would interfere with GC-MS/MS analysis, 500 µL water were added to the samples followed by lyophilization overnight. This procedure was repeated twice. Dried samples were derivatized and analyzed by GC-MS/MS as described, [30]. For each data point, three independently prepared samples were used.
Although Gh and Sp are excellent substrates for NEIL1, these are likely not to be the biologically relevant substrates. Thus, to determine if the compounds that were identified above were effective in the inhibition of NEIL1 against its biologically relevant substrates FapyAde and FapyGua, [6], γ-irradiated calf thymus DNA was used as a substrate. The excision by NEIL1 of these substrates from DNA was measured by GC-MS/MS with isotope-dilution. Figure 8 illustrates the excision of FapyAde and FapyGua by NEIL1 from γ-irradiated calf thymus DNA in the absence or presence of inhibitors. […] Some inhibition by DMSO alone was also observed when compared with excision by NEIL1 alone (p = 0.01). However, when compared to DMSO, the inhibitions by P2, P6, P7 and P8 were highly significant (p<0.005). […] A p-value<0.05 was assumed to correspond to statistical significance.

wild-type MEFs = assay: cell survival assay (CellTiter Glo), wild-type MEFs; assay type: cell-based, mouse; details: WT MEFs, 72 h exposure
Protocol: (§1) Wild-type or Neil1-KO MEFs were plated in a 96-well opaque walled dish (2000 cells/well) and incubated for 18 h to allow for attachment. Inhibitor (80 µL) diluted in DMEM was added to the cells at various concentrations ranging from 0–20 µM, and incubated for an additional 72 h. Cell viability was measured using the CellTiter Glo reagent (Promega, Madison, WI) and was prepared as per the manufacturer's instructions, with 50 µL of the reconstituted reagent added to each well. Cells were incubated for 10 min on an orbital shaker to induce cell lysis. Survival was measured by luminescence on a microplate reader (TECAN) and normalized to no-treatment control.
(§2) To experimentally address this question, mouse embryo fibroblasts from wild-type and Neil1 knockout mice were treated with increasing concentrations of P2, P6, P7, and P8. Cell survival was measured after a 72 h exposure. For all four compounds, the 37% survival was greater in the Neil1 knockout cells relative to the wild-type. The D37 ratios for WT: Neil1 were as follows: P2: 6∶10 µM; P6: 5∶8 µM; P7: 12∶15 µM; and P8: 7∶11 µM, respectively. […] In addition to modulating BER, there are potentially many other candidate enzymes that may be compromised by the introduction of these compounds, including but not limited to kinases, DNA and RNA polymerases, other DNA repair complexes or helicases. However, given that the concentrations of these compounds are several orders of magnitude higher than what would be considered as a pharmacologically-relevant dose, detailed mechanistic analyses of the current set of compounds is highly premature. Such studies and the development of appropriate cell culture and animal models will need to be generated concomitantly with the evolution of higher affinity, greater specificity molecules.

Neil1-KO MEFs = assay: cell survival assay (CellTiter Glo), Neil1-KO MEFs; assay type: cell-based, mouse; details: Neil1 knockout MEFs, 72 h exposure
Protocol: as §1, §2

T1 sequence (Q96FI4 whole entry): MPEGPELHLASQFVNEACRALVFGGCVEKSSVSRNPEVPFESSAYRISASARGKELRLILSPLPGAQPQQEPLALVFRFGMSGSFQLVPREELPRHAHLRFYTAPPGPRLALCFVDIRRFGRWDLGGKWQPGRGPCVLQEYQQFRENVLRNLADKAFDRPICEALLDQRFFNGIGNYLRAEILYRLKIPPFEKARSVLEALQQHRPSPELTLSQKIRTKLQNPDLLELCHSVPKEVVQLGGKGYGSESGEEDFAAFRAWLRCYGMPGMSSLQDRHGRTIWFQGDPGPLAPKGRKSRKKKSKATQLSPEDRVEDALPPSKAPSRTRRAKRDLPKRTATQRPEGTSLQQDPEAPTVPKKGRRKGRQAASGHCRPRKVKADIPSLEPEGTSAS

| Compound | IC50 (NEIL1 [1]) | inhibition of NEIL1 excision of FapyAde and FapyGua (NEIL1 [2]) | D37 (37% survival) (wild-type MEFs) | D37 (37% survival) (Neil1-KO MEFs) |
| --- | --- | --- | --- | --- |
| Cc1nc2ccc(Nc3nc(Nc4c(C)cc(/C=C/C#N)cc4C)nc4[nH]cnc34)cc2s1 [Purine P6] | 7.9 µM | significantly reduced the activity of NEIL1 | 5 µM | 8 µM |
| Cc1cc(/C=C/C#N)cc(C)c1Nc1nc(Nc2ccc3c(c2)OCO3)c2nc[nH]c2n1 [Purine P8] | 10 µM | significantly reduced the activity of NEIL1 | 7 µM | 11 µM |
| Cc1cc(/C=C/C#N)cc(C)c1Nc1nc(Nc2ccc3scnc3c2)c2nc[nH]c2n1 [Purine P2] | 4 µM | significantly reduced the activity of NEIL1 | 6 µM | 10 µM |
| Cc1cc(/C=C/C#N)cc(C)c1Nc1nc(Nc2ccc3c(c2)CCC3)c2nc[nH]c2n1 [Purine P7] | 8.9 µM | significantly reduced the activity of NEIL1 | 12 µM | 15 µM |
